Data published in patent US20250205178A1, “METHODS AND COMPOSITIONS FOR INHIBITING VIRAL […]” (ARIZONA BOARD OF REGENTS ON BEHALF OF THE UNIVERSITY OF …, priority 2022, published 2025).
Entries after “also recorded” stand apart in the source; their conditions may differ. Where two headings read alike, the source gives them in different places.

Legend:
WNV MTase [1] = target: T1, WNV MTase (West Nile virus, UniProt Q9Q6P4); type: binding; conditions: read-out: KD of FL-NAH
DENV3 MTase [2] = target: T2, DENV3 MTase (Dengue virus type 3, UniProt Q6YMS4); test: FL-NAH FP binding assay, DENV3 MTase
T2 sequence (Q6YMS4 2492-2753): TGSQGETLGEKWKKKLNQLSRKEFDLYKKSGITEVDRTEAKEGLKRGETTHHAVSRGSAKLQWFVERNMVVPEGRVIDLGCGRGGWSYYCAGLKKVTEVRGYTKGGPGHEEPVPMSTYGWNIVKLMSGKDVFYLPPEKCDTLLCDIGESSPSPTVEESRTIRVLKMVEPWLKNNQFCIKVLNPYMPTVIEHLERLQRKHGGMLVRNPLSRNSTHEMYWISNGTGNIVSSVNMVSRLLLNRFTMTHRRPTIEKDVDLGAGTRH

YFV MTase [3] = target: T3, YFV MTase (Yellow fever virus, UniProt P03314); type: binding; conditions: read-out: KD of FL-NAH
T3 sequence (P03314 2507-2771 limits assumed): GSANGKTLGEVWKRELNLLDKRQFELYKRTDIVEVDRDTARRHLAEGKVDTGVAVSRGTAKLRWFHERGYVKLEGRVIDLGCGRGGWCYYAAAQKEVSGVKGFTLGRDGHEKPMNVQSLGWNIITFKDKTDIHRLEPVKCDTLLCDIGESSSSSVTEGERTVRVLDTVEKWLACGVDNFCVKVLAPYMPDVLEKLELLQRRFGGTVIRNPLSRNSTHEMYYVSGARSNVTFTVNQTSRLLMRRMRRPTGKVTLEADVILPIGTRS

NSP14-NSP10 complex = NSP14-NSP10 complex (Severe acute respiratory syndrome coronavirus 2, UniProt P0DTD1); test: FL-NAH FP binding assay, NSP14-NSP10 complex; design: species or system SARS-CoV-2; conditions: 50 nM FL-NAH, read-out: binding affinity of FL-NAH
Procedure: FP was calculated by measuring the parallel and perpendicular fluorescence with excitation and emission wavelengths of 485 nm and 528 nm, respectively. N=3
Using purified proteins, we investigated whether binding of FL-NAH to the NSP14 MTase could be monitored by FP. […] In addition, we investigated if FL-NAH is also bound to the NSP14/NSP10 complex. […] The results confirmed that NSP10 was not required for the NSP14 MTase function. Since NSP10 had only minimal effects on the NSP14 MTase activity, all the following experiments were performed using the NSP14 MTase alone.

ZIKV MTase = ZIKV MTase (Zika virus, UniProt A0A024B7W1); type: binding; conditions: read-out: KD of FL-NAH
Sequence of ZIKV MTase (A0A024B7W1 2521-2785 limits assumed): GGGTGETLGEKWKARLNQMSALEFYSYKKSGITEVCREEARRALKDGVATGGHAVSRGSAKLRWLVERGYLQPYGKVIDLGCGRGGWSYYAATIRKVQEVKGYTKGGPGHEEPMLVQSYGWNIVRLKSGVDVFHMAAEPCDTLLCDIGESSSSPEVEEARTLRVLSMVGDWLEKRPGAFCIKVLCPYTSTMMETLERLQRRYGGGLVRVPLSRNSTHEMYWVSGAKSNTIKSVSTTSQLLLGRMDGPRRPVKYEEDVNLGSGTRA

WNV MTase [4] = target: T1, WNV MTase; type: binding
Human RNA MTase (hRNMT) = Human RNA MTase (hRNMT) (Homo sapiens, UniProt O43148); conditions: read-out: IC50-disp
Sequence of Human RNA MTase (hRNMT) (O43148 whole entry): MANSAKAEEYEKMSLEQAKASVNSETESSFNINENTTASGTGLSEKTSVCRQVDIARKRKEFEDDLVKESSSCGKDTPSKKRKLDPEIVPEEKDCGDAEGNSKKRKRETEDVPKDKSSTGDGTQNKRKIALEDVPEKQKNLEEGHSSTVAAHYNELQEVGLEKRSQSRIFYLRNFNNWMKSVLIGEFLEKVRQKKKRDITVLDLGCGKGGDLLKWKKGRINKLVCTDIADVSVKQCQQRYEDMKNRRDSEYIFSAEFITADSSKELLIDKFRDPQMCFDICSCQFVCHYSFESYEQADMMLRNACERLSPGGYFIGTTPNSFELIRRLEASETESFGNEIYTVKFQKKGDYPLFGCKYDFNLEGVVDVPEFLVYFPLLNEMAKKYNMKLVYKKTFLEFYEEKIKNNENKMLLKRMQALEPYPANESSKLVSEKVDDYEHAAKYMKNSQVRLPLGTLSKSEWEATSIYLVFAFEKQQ

SARS-CoV-2 WA strain = test: Checkerboard compound combination assay (plaque) in Vero-E6 cells; type: cell-based
Procedure: The 2D compound-compound interactions were determined by checkerboard titration in a 96-well plate. Vero-E6 cells were seeded one day before combination test at 3×10^4 cells/each well. The first compound (A) was serially diluted along the x axis (columns 3 to 8); and the second compound (B) was serially diluted along the y axis (from row A to F) in the 96-well plate. The last two columns (columns 9 and 10) contained compound B-alone controls and the last two rows (row G and H) contained compound A-alone controls. After the cells grew into monolayer, the medium was discard, followed by addition of 50 μl compound mixture. Then 50 μl SARS-CoV-2 WA strain was added at MOI of 0.01.
The plate was incubated at 37° C., 5% CO2 for 1 hour. Then 100 μl overlay medium (DMEM+2% FBS+1% Methylcellulose) was added and the plate was further incubated at 37° C., 5% CO2. After 3 days, cells were fixed with 10% neutral formalin for 30 minutes, wash with water for more than 6 times and then stained with 50 μl Crystal Violet (0.5% in methanol/water) for 4 minutes. The staining solution was removed by aspiration and the plate was rinsed with water, and dried thoroughly. Plaques were counted and numbers were recorded to calculate the percentage of inhibition. SynergyFinder was used to analyze the synergistic effect of the two compounds (https://synergyfinder.fimm.fi/synergy/20230202071113839465/). Each combination testing experiment has three replicates.

DENV3 MTase [5] = target: T2, DENV3 MTase; test: TLC MTase activity assay, DENV3; type: biochemical
DENV2 replicon = conditions: read-out: EC50-DENV2 Replic; DENV2 replicon cell line
YFV N7 MTase = YFV N7 MTase (Yellow fever virus, UniProt P03314); conditions: read-out: IC50-HTRF
Sequence of YFV N7 MTase (P03314 2507-2771 limits assumed): as the sequence (P03314 2507-2771 limits assumed) above

WNV N7 MTase = WNV N7 MTase (West Nile virus, UniProt Q9Q6P4); type: biochemical
Sequence of WNV N7 MTase (Q9Q6P4 2529-2794 limits assumed): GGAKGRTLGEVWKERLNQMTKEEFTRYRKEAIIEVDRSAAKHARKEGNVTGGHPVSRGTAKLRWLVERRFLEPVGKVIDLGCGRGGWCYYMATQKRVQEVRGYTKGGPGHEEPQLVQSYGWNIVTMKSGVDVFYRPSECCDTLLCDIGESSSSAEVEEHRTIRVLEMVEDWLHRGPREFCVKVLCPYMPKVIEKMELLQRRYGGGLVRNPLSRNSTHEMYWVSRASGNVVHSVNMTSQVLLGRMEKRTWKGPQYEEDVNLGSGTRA

SARS-CoV-2 NSP14 MTase [6] = target: T4, SARS-CoV-2 NSP14 MTase (Severe acute respiratory syndrome coronavirus 2, UniProt P0DTD1); conditions: read-out: IC50-TLC, NSP14 MTase activity
[7] = target: SARS-CoV-2 NSP14 N7-MTase (Severe acute respiratory syndrome coronavirus 2, UniProt P0DTD1); conditions: read-out: IC50-HTRF, NSP14 MTase activity; GpppA dinucleotide substrate
DENV2 = test: Antiviral immunofluorescence assay (IFA), DENV2; type: cell-based
[8] = system: human lung carcinoma A549 cells; test: WST-8 cytotoxicity assay in A549 cells; type: cell-based
Procedure: As previously mentioned, cytotoxicity to the human lung carcinoma A549 cells was assessed using a WST-8 cell proliferation assay kit (Dojindo Molecular Technologies, Inc.).
To further characterize these candidate inhibitors, we investigated the cytotoxicity of NSC 111552 and 288387 to human A549 lung carcinoma cells, using a WST-8 cell viability kit, as we described previously.

SARS-CoV-2 NSP14 MTase [9] = target: T4, SARS-CoV-2 NSP14 MTase; type: binding; conditions: for IC50: 50 nM FL-NAH, NSP14 MTase, read-out: IC50-disp, inhibition of FL-NAH binding
SARS-CoV-2 NSP14 = SARS-CoV-2 NSP14 (Severe acute respiratory syndrome coronavirus 2, UniProt P0DTD1); conditions: read-out: NSP14 KD; MST, NSP14 40 nM
YFV MTase [10] = target: T3, YFV MTase; conditions: read-out: IC50-disp
[11] = system: SARS-CoV-2 WT strain (Washington strain); test: Immunofluorescence assay, SARS-CoV-2 WT Washington strain; type: cell-based; conditions: Vero E6, WT Washington strain 0.01 MOI, 24 h
SARS-CoV-2 = conditions: read-out: Antiviral EC50; Vero cells, plaques at 72 h post-infection
DENV3 NS5 MTase [12] = target: T5, DENV3 NS5 MTase (Dengue virus type 3, UniProt Q6YMS4); test: FL-NAH FP displacement assay, DENV3 NS5; type: binding
T5 sequence (Q6YMS4 2492-2753): as the sequence (Q6YMS4 2492-2753) above

ZIKV N7 MTase = ZIKV N7 MTase (Zika virus, UniProt A0A024B7W1); type: biochemical
Sequence of ZIKV N7 MTase (A0A024B7W1 2521-2785 limits assumed): as the sequence (A0A024B7W1 2521-2785 limits assumed) above

DENV3 NS5 MTase [13] = target: T5, DENV3 NS5 MTase; conditions: MST
ZIKV = test: Antiviral immunofluorescence assay (IFA), ZIKV; type: cell-based
DENV3 NS5 N7 MTase = DENV3 NS5 N7 MTase (Dengue virus type 3, UniProt Q6YMS4); test: HTRF MTase functional assay, DENV3; type: biochemical
Sequence of DENV3 NS5 N7 MTase (Q6YMS4 2492-2753): as the sequence (Q6YMS4 2492-2753) above

SARS-CoV-2 NSP14 MTase [14] = target: T4, SARS-CoV-2 NSP14 MTase; conditions: read-out: IC50-MS, NSP14 MTase activity
ZIKV NS5 MTase = ZIKV NS5 MTase (Zika virus, UniProt A0A024B7W1); type: binding
Sequence of ZIKV NS5 MTase (A0A024B7W1 2521-2785 limits assumed): as the sequence (A0A024B7W1 2521-2785 limits assumed) above

[15] = system: SARS-CoV-2 Omicron strain (BA.1.1); test: Immunofluorescence assay, SARS-CoV-2 Omicron strain; type: cell-based
SARS-CoV-2 NSP16 MTase = SARS-CoV-2 NSP16 MTase (Severe acute respiratory syndrome coronavirus 2, UniProt P0DTD1); test: FL-NAH FP displacement assay, NSP16; type: binding; conditions: SAH 25 μM, 31.25 μM or 50 μM; NSP16 0.5 μM; p<0.0001

T1 sequence (Q9Q6P4 2529-2794 limits assumed): as the sequence (Q9Q6P4 2529-2794 limits assumed) above

## Nc1ncnc2c1ncn2[C@@H]1O[C@H](CN(CC[C@H](N)C(=O)O)Cc2cn(CCNC(=O)c3ccc4c(c3)C(=O)OC43c4ccc(O)cc4Oc4cc(O)ccc43)nn2)[C@@H](O)[C@H]1O [FL-NAH, fluorescein N-adenosylhomocysteine]
WNV MTase [1]
  Kd: 0.28 µM
DENV3 MTase [2]
  Kd: 0.61 µM
YFV MTase [3]
  Kd: 3 µM
NSP14-NSP10 complex
  Kd: 0.81 µM
ZIKV MTase
  Kd: 3.5 µM

## CC(=O)c1cc(O)c2ccccc2c1O [NSC 111552]
WNV MTase [4]
  IC50: 5.7 µM
Human RNA MTase (hRNMT)
  IC50: 63.3 µM
SARS-CoV-2 WA strain; NSC111552 in combination with nirmatrelvir
  maximal ZIP-score: 21
SARS-CoV-2 WA strain; NSC111552 in combination with remdesivir
  maximal ZIP-score: 24
DENV3 MTase [5]
  IC50: 1.1 µM
DENV2 replicon
  EC50: 5 µM
YFV N7 MTase
  IC50: 26.7 µM
WNV N7 MTase
  IC50: 5.2 µM
SARS-CoV-2 NSP14 MTase [6]
  IC50: 7 µM
[7]
  IC50: 2.2 µM
DENV2
  EC50: 0.32 µM
[8]
  CC50: ~187 µM
SARS-CoV-2 NSP14 MTase [9]
  IC50: 5.1 µM
SARS-CoV-2 NSP14
  Kd: 2.1 µM
YFV MTase [10]
  IC50: 46 µM
[11]
  viral titer in IFA: dose-dependently reduced the viral titer
SARS-CoV-2
  EC50: 8.5 µM
DENV3 NS5 MTase [12]; DENV3, DTT (1 mM)
  IC50: 1.6 µM
DENV3 NS5 MTase [12]; DENV3, No DTT
  IC50: 1.1 µM
ZIKV N7 MTase
  IC50: 12.9 µM
DENV3 NS5 MTase [13]
  Kd: 4.6 µM
ZIKV
  EC50: 0.9 µM
DENV3 NS5 N7 MTase
  IC50: 3.9 µM
SARS-CoV-2 NSP14 MTase [14]
  IC50: 1.5 µM
ZIKV NS5 MTase
  IC50: 7.3 µM
[15]
  viral titer in IFA: dose-dependently reduced the viral titer

## COCCn1c2nc(=O)n(-c3ccccc3)c(=O)c-2nc2ccccc21 [NSC 288387]
WNV MTase [4]
  IC50: 13 µM
Human RNA MTase (hRNMT)
  IC50: 35.5 µM
DENV3 MTase [5]
  IC50: 1.6 µM
DENV2 replicon
  EC50: 11.4 µM
YFV N7 MTase
  IC50: 11.2 µM
WNV N7 MTase
  IC50: 12.2 µM
SARS-CoV-2 NSP14 MTase [6]
  IC50: 2.5 µM
[7]
  IC50: 2.2 µM
DENV2
  EC50: 0.53 µM
[8]
  CC50: 57 µM
SARS-CoV-2 NSP14 MTase [9]
  IC50: 2.7 µM
SARS-CoV-2 NSP14
  Kd: 1.5 µM
YFV MTase [10]
  IC50: 10 µM
[11]
  viral titer in IFA: dose-dependently reduced the viral titer
SARS-CoV-2
  EC50: 5.7 µM
DENV3 NS5 MTase [12]; DENV3, DTT (1 mM)
  IC50: 3.9 µM
DENV3 NS5 MTase [12]; DENV3, No DTT
  IC50: 1.3 µM
DENV3 NS5 MTase [12]; with vs without DTT
  effect of DTT (1 mM) on potency in inhibiting FL-NAH binding: reducing its potency by about threefold
ZIKV N7 MTase
  IC50: 6.8 µM
DENV3 NS5 MTase [13]
  Kd: 3.2 µM
ZIKV
  EC50: 0.69 µM
DENV3 NS5 N7 MTase
  IC50: 6 µM
SARS-CoV-2 NSP14 MTase [14]
  IC50: 4.3 µM
ZIKV NS5 MTase
  IC50: 4.9 µM
[15]
  viral titer in IFA: dose-dependently reduced the viral titer

## Nc1ncnc2c1ncn2[C@@H]1O[C@H](CSCC[C@H](N)C(=O)O)[C@@H](O)[C@H]1O [SAH, S-adenosyl-L-homocysteine]
SARS-CoV-2 NSP14 MTase [9]; SAH 25 μM, 31.25 μM or 50 μM, NSP14 0.5 μM, p<0.0001
  inhibition of FL-NAH binding (FP): inhibited
SARS-CoV-2 NSP16 MTase
  inhibition of FL-NAH binding (FP): inhibited; also recorded: quenched
ZIKV NS5 MTase
  inhibition of FL-NAH binding (FP): inhibited; also recorded: quenched

## C[S+](CC[C@H](N)C(=O)O)C[C@H]1O[C@@H](n2cnc3c(N)ncnc32)[C@H](O)[C@@H]1O (stereo partly shown) [SAM, S-adenosylmethionine]
SARS-CoV-2 NSP16 MTase
  inhibition of FL-NAH binding (FP): quenched
ZIKV NS5 MTase
  inhibition of FL-NAH binding (FP): quenched

## CC(C)(C)[C@H](NC(=O)C(F)(F)F)C(=O)N1C[C@H]2[C@@H]([C@H]1C(=O)N[C@H](C#N)C[C@@H]1CCNC1=O)C2(C)C [nirmatrelvir]
SARS-CoV-2 WA strain; Severe acute respiratory syndrome coronavirus 2, Vero C1008, nirmatrelvir alone, read-out: EC50
  EC50: 0.056 µM
SARS-CoV-2 WA strain; Severe acute respiratory syndrome coronavirus 2, Vero C1008, nirmatrelvir in the presence of NSC111552
  EC50: ~0.031 µM
SARS-CoV-2 WA strain; nirmatrelvir, in the presence of NSC111552
  EC50 shift: ~1.8 fold

## CCC(CC)COC(=O)[C@H](C)N[P@](=O)(OC[C@H]1O[C@@](C#N)(c2ccc3c(N)ncnn23)[C@H](O)[C@@H]1O)Oc1ccccc1 [remdesivir]
SARS-CoV-2 WA strain; Severe acute respiratory syndrome coronavirus 2, Vero C1008, remdesivir alone, read-out: EC50
  EC50: 0.04 µM
SARS-CoV-2 WA strain; Severe acute respiratory syndrome coronavirus 2, Vero C1008, remdesivir with NSC111552 ([…]), read-out: EC50
  EC50: 0.017 µM
SARS-CoV-2 WA strain; remdesivir with NSC111552 ([…])
  EC50 decrease: about 2.4 fold
